The values that follow come from ChEMBL document CHEMBL1124817, “Synthesis and Ca2+ antagonistic activity of 2-[2-[(aminoalkyl)oxy]-5-methoxyphenyl]-3,4-dihydro-4-methyl-3-oxo-2H- 1,4-benzothiazines” (J Med Chem, 1990).

The species named for assay [1] is Cavia porcellus. The experiment in a line: Inhibitory concentration required to suppress the contractile force of guinea pig right atria. Format: functional.
Assay [2] in a line: Selectivity ratio of IC50 for [Ca2+] antagonistic activity in aorta / IC50 for suppressive effect on contractile force. Format: functional.
The species named for assay [3] is Cavia porcellus. The experiment in a line: Inhibitory concentration required to block Ca+2 induced contraction of K+ depolarized guinea pig taenia cecum. Format: functional, Caecum.
Assay [4] is filed under the species Cavia porcellus. Put plainly: Inhibitory concentration required to suppress the rate of contraction of guinea pig right atria. Format: functional.
For assay [5], the species on record is Cavia porcellus. Put plainly: Inhibitory concentration required to block Ca+2 induced contraction of K+ depolarized guinea pig aorta. Format: functional.
A short description of assay [6]: Selectivity ratio of IC50 for [Ca2+] antagonistic activity in aorta / IC50 for suppressive effect on rate of contraction. Format: functional.

For the molecule `COc1ccc(OCCCN(C)CCOc2cc(OC)c(OC)c(OC)c2)c(C2Sc3ccccc3N(C)C2=O)c1` (stereo unspecified), the IC50 (usually the concentration that inhibits the measured activity by half) in the assay listed under Cavia porcellus [1] was 370 nM; in the assay filed under Cavia porcellus [3] (Cavia porcellus, Caecum), 230 nM; in the assay listed under Cavia porcellus [4] (read-out: IC50), 500 nM; in the assay listed under Cavia porcellus [5] it was 4100 nM. Moreover, the Ratio in assay [2] was found to be 11.1; in assay [6] it was 8.2.
For the molecule `COc1ccc(OCCCCN(C)CCOc2cc(OC)c(OC)c(OC)c2)c(C2Sc3ccccc3N(C)C2=O)c1` (stereo unspecified), the concentration for half-maximal inhibition (IC50) was 200 nM in the assay filed under Cavia porcellus [1]; 160 nM in the assay filed under Cavia porcellus [3] (Cavia porcellus, Caecum); 190 nM in the assay listed under Cavia porcellus [4] (read-out: IC50); 1500 nM in the assay filed under Cavia porcellus [5]. Also, the Ratio was found to be 7.5 in assay [2] and 7.9 in assay [6].
For the molecule `COc1ccc(OCCCN(C)CCc2cc(OC)c(OC)c(OC)c2)c(C2Sc3ccccc3N(C)C2=O)c1` (stereo unspecified), the concentration for half-maximal inhibition (IC50) was 520 nM in the assay filed under Cavia porcellus [1]; 270 nM in the assay filed under Cavia porcellus [3] (Cavia porcellus, Caecum); 400 nM in the assay filed under Cavia porcellus [4] (read-out: IC50); 2400 nM in the assay listed under Cavia porcellus [5]. Besides, the values for the Ratio in assay [2] and in assay [6] were 4.6 and 6, respectively.
The molecule `COc1ccc(OCCCN(C)CCOc2ccc3c(c2)OCO3)c(C2(C)Sc3ccccc3N(C)C2=O)c1` (stereo unspecified) displayed a half-maximal inhibitory concentration (IC50) in the assay listed under Cavia porcellus [3] (Cavia porcellus, Caecum) of 2100 nM.
The same measure, in the same setting: with `COc1ccc(OCCCN(C)CCOc2c(OC)cccc2OC)c(C2Sc3ccccc3N(C)C2=O)c1` (stereo unspecified) the figure was 510 nM; with `COc1ccc(OCCCN(C)CCOc2ccc3c(c2)OCO3)c(C2Sc3ccccc3N(C)C2=S)c1` (stereo unspecified), > 10000 nM.
For `COc1ccc(CCN(C)CCCC(C#N)(c2ccc(OC)c(OC)c2)C(C)C)cc1OC` (stereo unspecified) [VERAPAMIL], the concentration for half-maximal inhibition (IC50) worked out at 35 nM in the assay listed under Cavia porcellus [1], 210 nM in the assay listed under Cavia porcellus [4] and 620 nM in the assay filed under Cavia porcellus [5]. Moreover, the Ratio worked out at 17.7 in assay [2] and 3 in assay [6].
As for `COc1ccc(OCCCN(C)CCOc2ccc3c(c2)OCO3)c([C@H]2Sc3ccccc3N(C)C2=O)c1` [SEMOTIADIL], the concentration for half-maximal inhibition (IC50) was found to be 68 nM in the assay listed under Cavia porcellus [1]; 89 nM in the assay listed under Cavia porcellus [3] (Cavia porcellus, Caecum); 180 nM in the assay listed under Cavia porcellus [4] (read-out: IC50); 230 nM in the assay listed under Cavia porcellus [5]. Moreover, the Ratio is 3.4 in assay [2] and 1.3 in assay [6].
With `COc1ccc([C@@H]2Sc3ccccc3N(CCN(C)C)C(=O)[C@@H]2OC(C)=O)cc1` [DILTIAZEM], the half-maximal inhibitory concentration (IC50) in the assay filed under Cavia porcellus [1] is 95 nM; in the assay listed under Cavia porcellus [4] (read-out: IC50) it was 600 nM; in the assay filed under Cavia porcellus [5], 4500 nM. Moreover, the values for the Ratio in assay [2] and in assay [6] were 47.4 and 7.5, respectively.
In turn, `COc1ccc(OCCCNCCOc2ccc3c(c2)OCO3)c(C2Sc3ccccc3N(C)C2=O)c1` (stereo unspecified) came in with a half-inhibitory concentration (IC50) in the assay listed under Cavia porcellus [3] (Cavia porcellus, Caecum) of 490 nM.
Same read-out and setting: next, `COc1ccc(OCCCN(C)CCOc2ccc3c(c2)OCO3)c(C2(C(C)C)Sc3ccccc3N(C)C2=O)c1` (stereo unspecified): > 10000 nM; `COc1ccc(OCCCN(CCOc2ccc3c(c2)OCO3)C(C)C)c(C2Sc3ccccc3N(C)C2=O)c1` (stereo unspecified): 1900 nM.
`COc1ccc(OCCCN(C)CCOc2ccc3c(c2)OCO3)c(C2CN(C)c3ccccc3S2)c1` (stereo unspecified): the IC50 in the assay listed under Cavia porcellus [3] (Cavia porcellus, Caecum) is > 10000 nM.
`COc1ccc(OCCCN(C)CCOc2ccc3c(c2)OCO3)c(C2Sc3ccccc3N(C)C2=O)c1` (stereo in doubt; (-)-15) displayed a half-maximal inhibitory concentration (IC50) in the assay listed under Cavia porcellus [3] of 600 nM.
The molecule `COc1ccc(OCCCCN(C)CCc2cc(OC)c(OC)c(OC)c2)c(C2Sc3ccccc3N(C)C2=O)c1` (stereo unspecified) registered an IC50 in the assay filed under Cavia porcellus [3] (Cavia porcellus, Caecum) of 350 nM.
Still for that read-out and setting: next, `COc1ccc(OCCCN(C)CCOc2ccc3c(c2)CCC3)c(C2Sc3ccccc3N(C)C2=O)c1` (stereo unspecified): > 10000 nM; `COc1ccc(OCCN(C)CCCCOc2ccc(OC)cc2C2Sc3ccccc3N(C)C2=O)cc1` (stereo unspecified): 530 nM.
In the case of `COc1ccc(OCCCCN(C)CCOc2ccc3c(c2)OCO3)c(C2Sc3ccccc3N(C)C2=O)c1` (stereo unspecified), the 50% inhibitory concentration (IC50) in the assay filed under Cavia porcellus [1] was found to be 94 nM; in the assay listed under Cavia porcellus [3] (Cavia porcellus, Caecum) it was 170 nM; in the assay listed under Cavia porcellus [4] (read-out: IC50), 190 nM; in the assay listed under Cavia porcellus [5], 330 nM. Besides, the Ratio was determined as 3.5 in assay [2] and 1.7 in assay [6].
With `COc1ccc(OCCCN(C)CCOc2ccc3c(c2)OCO3)c(C2(OC)Sc3ccccc3N(C)C2=O)c1` (stereo unspecified), the half-inhibitory concentration (IC50) in the assay listed under Cavia porcellus [3] (Cavia porcellus, Caecum) was found to be 250 nM.
On to `COc1cc(OC)cc(OCCN(C)CCCOc2ccc(OC)cc2C2Sc3ccccc3N(C)C2=O)c1` (stereo unspecified), for which the IC50 in the assay listed under Cavia porcellus [3] (Cavia porcellus, Caecum) is 550 nM.
Same read-out and setting: with `COc1ccc(OCCCN(C)CCOc2ccc3c(c2)OCO3)c(C2(SC)Sc3ccccc3N(C)C2=O)c1` (stereo unspecified) the figure was 1500 nM.
In the case of `COc1ccc(OCCCCN(C)CCOc2ccc(OC)c(OC)c2)c(C2Sc3ccccc3N(C)C2=O)c1` (stereo unspecified), the IC50 in the assay listed under Cavia porcellus [1] is 440 nM; in the assay filed under Cavia porcellus [3] (Cavia porcellus, Caecum) it was 230 nM; in the assay listed under Cavia porcellus [4] (read-out: IC50), 600 nM; in the assay filed under Cavia porcellus [5] it was 2900 nM. In addition, the Ratio was 6.6 in assay [2] and 4.8 in assay [6].
For the molecule `COc1ccc(OCCCN(C)CCOc2ccc3c(c2)OCO3)c(C2Sc3ccccc3N(C)C2=O)c1` (stereo in doubt; 15), the IC50 was found to be 310 nM in the assay listed under Cavia porcellus [1], 180 nM in the assay filed under Cavia porcellus [3], 590 nM in the assay filed under Cavia porcellus [4] (read-out: IC50) and 660 nM in the assay listed under Cavia porcellus [5]. Moreover, the figures for the Ratio in assay [2] and in assay [6] were 2.1 and 1.1, respectively.
